{
  "source": "ChEMBL document CHEMBL2074445",
  "about": "“Effect of organic isothiocyanates on the P-glycoprotein- and MRP1-mediated transport of daunomycin and vinblastine” (Pharm Res, 2002)",
  "format_in_all_cases": "functional, cell-based",
  "key": {"[1]": {"molecular_target": "T1, ATP-dependent translocase ABCB1 (Homo sapiens, UniProt P08183)", "T1 sequence (P08183 whole entry)": "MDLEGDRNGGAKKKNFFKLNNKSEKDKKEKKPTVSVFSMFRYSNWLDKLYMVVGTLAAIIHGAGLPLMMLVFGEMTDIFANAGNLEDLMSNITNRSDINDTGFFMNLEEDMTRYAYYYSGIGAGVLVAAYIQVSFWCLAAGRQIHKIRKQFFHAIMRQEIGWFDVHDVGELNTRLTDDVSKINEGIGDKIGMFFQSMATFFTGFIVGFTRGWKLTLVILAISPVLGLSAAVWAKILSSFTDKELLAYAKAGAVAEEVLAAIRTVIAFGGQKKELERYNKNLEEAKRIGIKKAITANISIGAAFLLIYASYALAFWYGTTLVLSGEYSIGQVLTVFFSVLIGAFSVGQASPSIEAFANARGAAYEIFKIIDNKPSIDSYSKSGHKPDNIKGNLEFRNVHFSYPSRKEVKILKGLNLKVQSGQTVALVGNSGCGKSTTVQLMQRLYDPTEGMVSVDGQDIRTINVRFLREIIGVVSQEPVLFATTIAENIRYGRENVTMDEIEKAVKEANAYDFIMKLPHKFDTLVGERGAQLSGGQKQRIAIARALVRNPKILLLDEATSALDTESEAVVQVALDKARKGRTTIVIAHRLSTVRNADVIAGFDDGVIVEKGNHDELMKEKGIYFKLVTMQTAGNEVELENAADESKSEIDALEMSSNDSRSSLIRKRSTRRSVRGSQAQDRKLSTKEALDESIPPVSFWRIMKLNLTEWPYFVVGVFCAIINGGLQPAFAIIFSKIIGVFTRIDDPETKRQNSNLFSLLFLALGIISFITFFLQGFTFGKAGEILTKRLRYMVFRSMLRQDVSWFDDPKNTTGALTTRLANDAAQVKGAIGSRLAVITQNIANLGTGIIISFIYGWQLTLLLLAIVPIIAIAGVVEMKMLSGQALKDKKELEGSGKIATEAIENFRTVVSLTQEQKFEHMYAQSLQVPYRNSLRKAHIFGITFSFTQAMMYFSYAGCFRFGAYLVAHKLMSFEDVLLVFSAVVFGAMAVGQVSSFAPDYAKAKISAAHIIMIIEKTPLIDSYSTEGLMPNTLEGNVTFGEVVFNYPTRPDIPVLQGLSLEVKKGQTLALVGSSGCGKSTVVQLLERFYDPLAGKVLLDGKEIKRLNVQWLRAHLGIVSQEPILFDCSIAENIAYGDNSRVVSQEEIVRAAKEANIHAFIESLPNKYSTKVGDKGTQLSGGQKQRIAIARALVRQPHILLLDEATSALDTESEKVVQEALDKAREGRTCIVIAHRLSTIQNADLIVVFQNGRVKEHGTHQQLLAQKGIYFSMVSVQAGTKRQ", "assay": "TP_TRANSPORTER: increase in Daunomycin intracellular accumulation (Daunomycin: 0.05 uM, NITC: 100 uM) in MCF-7 ADR cells", "settings": "nci/adr-res"}, "[2]": {"molecular_target": "T2, Multidrug resistance-associated protein 1 (Homo sapiens, UniProt P33527)", "T2 sequence (P33527 whole entry)": "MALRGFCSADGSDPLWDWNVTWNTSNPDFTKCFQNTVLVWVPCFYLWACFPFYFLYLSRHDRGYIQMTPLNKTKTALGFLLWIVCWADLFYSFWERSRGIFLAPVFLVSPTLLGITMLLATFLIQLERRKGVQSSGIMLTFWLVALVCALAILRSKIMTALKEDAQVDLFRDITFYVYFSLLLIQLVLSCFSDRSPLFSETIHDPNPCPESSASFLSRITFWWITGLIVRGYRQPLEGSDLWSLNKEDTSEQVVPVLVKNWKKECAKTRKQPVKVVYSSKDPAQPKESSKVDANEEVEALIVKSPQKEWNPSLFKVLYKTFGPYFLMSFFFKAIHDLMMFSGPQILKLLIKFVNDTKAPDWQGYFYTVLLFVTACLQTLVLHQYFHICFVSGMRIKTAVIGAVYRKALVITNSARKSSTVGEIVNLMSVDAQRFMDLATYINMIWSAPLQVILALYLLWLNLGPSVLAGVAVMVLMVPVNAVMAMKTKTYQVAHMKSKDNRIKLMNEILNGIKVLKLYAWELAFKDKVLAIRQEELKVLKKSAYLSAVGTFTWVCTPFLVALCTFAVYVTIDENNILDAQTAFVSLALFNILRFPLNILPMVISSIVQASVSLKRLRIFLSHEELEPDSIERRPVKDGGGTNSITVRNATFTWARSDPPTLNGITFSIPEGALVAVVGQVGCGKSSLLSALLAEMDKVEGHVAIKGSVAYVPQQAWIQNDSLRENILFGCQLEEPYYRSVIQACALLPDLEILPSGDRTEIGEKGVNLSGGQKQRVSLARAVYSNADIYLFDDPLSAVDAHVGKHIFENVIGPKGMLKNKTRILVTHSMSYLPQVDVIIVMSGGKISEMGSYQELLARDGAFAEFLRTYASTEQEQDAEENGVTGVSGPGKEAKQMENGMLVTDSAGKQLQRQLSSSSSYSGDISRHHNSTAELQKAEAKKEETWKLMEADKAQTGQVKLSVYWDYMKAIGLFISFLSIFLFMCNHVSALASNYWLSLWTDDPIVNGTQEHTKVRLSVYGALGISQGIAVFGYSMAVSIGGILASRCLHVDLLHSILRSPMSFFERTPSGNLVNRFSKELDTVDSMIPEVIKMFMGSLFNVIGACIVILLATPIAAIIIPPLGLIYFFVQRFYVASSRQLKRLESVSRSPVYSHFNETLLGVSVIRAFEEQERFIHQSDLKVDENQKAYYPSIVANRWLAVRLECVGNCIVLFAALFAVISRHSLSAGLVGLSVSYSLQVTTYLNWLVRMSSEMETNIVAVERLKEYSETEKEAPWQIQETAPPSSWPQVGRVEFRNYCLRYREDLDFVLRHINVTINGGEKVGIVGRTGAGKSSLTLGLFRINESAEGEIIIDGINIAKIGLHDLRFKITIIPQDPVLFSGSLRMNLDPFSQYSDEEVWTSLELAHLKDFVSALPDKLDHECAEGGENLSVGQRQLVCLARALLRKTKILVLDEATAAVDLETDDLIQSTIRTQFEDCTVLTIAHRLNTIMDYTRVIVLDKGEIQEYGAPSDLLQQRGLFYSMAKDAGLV", "assay": "TP_TRANSPORTER: increase in Daunomycin intracellular accumulation (Daunomycin: 0.05 uM, NITC: 100 uM) in PANC-1 cells", "settings": "panc-1, 100 µM"}, "[3]": {"molecular_target": "T1, ATP-dependent translocase ABCB1", "assay": "TP_TRANSPORTER: increase in Daunomycin intracellular accumulation (Daunomycin: 0.05 uM, Benzylisothiocyanate: 100 uM) in MCF-7/ADR cells", "settings": "nci/adr-res"}, "[4]": {"molecular_target": "T2, Multidrug resistance-associated protein 1", "assay": "TP_TRANSPORTER: increase in Daunomycin intracellular accumulation (Daunomycin: 0.05 uM, Phenylhexyl isothiocyanate: 100 uM) in PANC-1 cells", "settings": "panc-1, 100 µM"}, "[5]": {"molecular_target": "T2, Multidrug resistance-associated protein 1", "assay": "TP_TRANSPORTER: increase in Vinblastine intracellular accumulation (Vinblastine: 0.05 uM, Phenylbutyl isothiocyanate: 100 uM) in PANC-1 cells", "settings": "panc-1, 100 µM"}, "[6]": {"molecular_target": "T2, Multidrug resistance-associated protein 1", "assay": "TP_TRANSPORTER: increase in Vinblastine intracellular accumulation (Vinblastine: 0.05 uM, Phenylhexyl isothiocyanate: 100 uM) in PANC-1 cells", "settings": "panc-1, 100 µM"}, "[7]": {"molecular_target": "T1, ATP-dependent translocase ABCB1", "assay": "TP_TRANSPORTER: increase in Vinblastine intracellular accumulation ([…], Phenylhexyl isothiocyanate: 100 uM) in MCF-7/ADR cells", "settings": "nci/adr-res"}},
  "data": [
    {"smiles": "S=C=Nc1cccc2ccccc12", "note": "[1-NAPHTHYLISOTHIOCYANATE]", "values": [
      {"measurement": "Activity", "setting": "[1]", "result": 4, "unit": "fold"},
      {"measurement": "Activity", "setting": "[2]", "result": 3, "unit": "fold"}
    ]},
    {"smiles": "S=C=NCc1ccccc1", "note": "[BENZYL ISOTHIOCYANATE]", "values": [
      {"measurement": "Activity", "setting": "[3]", "result": 2.5, "unit": "fold"}
    ]},
    {"smiles": "S=C=NCCc1ccccc1", "note": "[PHENETHYLISOTHIOCYANATE]", "values": [
      {"measurement": "Activity", "setting": "[4]", "result": 2, "unit": "fold"}
    ]},
    {"smiles": "S=C=NCCCCc1ccccc1", "note": "[PHENYLBUTYL ISOTHIOCYANATE]", "values": [
      {"measurement": "Activity", "setting": "[5]", "result": 2.5, "unit": "fold"}
    ]},
    {"smiles": "S=C=NCCCCCCc1ccccc1", "note": "[PHENYLHEXYL ISOTHIOCYANATE]", "values": [
      {"measurement": "Activity", "setting": "[6]", "result": 3, "unit": "fold"},
      {"measurement": "Activity", "setting": "[7]", "result": 10, "unit": "fold"}
    ]}
  ]
}
